US9242998B2, “Tetracyclic heterocycle compounds and methods of use thereof for the treatment of hepatitis C” (priority 2013, dated 2016)

Columns and labels:
HCV genotype 1a replicon = assay: HCV replicon assay, genotype 1a (cell ELISA for replicon-encoded NS3/4A); format: cell-based; conditions: Hepatitis C virus, 96 h, read-out: 1a IC50
Method: (§1) Measurement of inhibition by compounds was performed using the HCV replicon system. Several different replicons encoding different HCV genotypes or mutations were used. In addition, potency measurements were made using different formats of the replicon assay, including different ways of measurements and different plating formats. See Jan M. Vrolijk et al., A replicons-based bioassay for the measurement of interferons in patients with chronic hepatitis C, 110 J. V[…] 201 (2003); Steven S. Carroll et al., Inhibition of Hepatitis C Virus RNA Replication by 2′-Modified Nucleoside Analogs, 278(14) J. BIOLOGICAL CHEMISTRY 11979 (2003). However, the underlying principles are common to all of these determinations, and are outlined below.
(§2) Stable neomycin phosphotransferase encoding replicons-harboring cell lines were used, so all cell lines were maintained under G418 selection prior to the assay. Potency was determined using a cell ELISA assay with an antibody to the replicons encoded NS3/4a protease. See Caterina Trozzi et al., In Vitro Selection and Characterization of Hepatitis C Virus Serine Protease Variants Resistant to an Active-Site Peptide Inhibitor, 77(6) J. Virol. 3669 (2003). To initiate an assay, replicon cells were plated in the presence of a dilution series of test compound in the absence of G418. Typically, the assays were performed in a 96-well plate formate for manual operation, or a 384-well plate format for automated assay. Replicon cells and compound were incubated for 96 hours. At the end of the assay, cells were washed free of media and compound, and the cells were then lysed. RNA was quantified indirectly through detection of replicon-encoded NS3/4A protein levels, through an ELISA-based assay with an antibody specific for NS3/4A. IC50 determinations were calculated as a percentage of a DMSO control by fitting the data to a four-parameter fit function and the data obtained is provided in the table below.
(§3) Data for selected compounds of the present invention was obtained for genotypes 1a and 1b using this method and is provided in the table below: […]

HCV genotype 1b replicon = assay: HCV replicon assay, genotype 1b (cell ELISA for replicon-encoded NS3/4A); format: cell-based; conditions: Hepatitis C virus, 96 h, read-out: 1b IC50
Method: as §1, §2, §3

Row | Structure (SMILES) | IC50 (HCV genotype 1a replicon) [nM] | IC50 (HCV genotype 1b replicon) [nM]
1 | CNC(=O)c1c(-c2ccc(OC)nc2)oc2cc(N(C)S(C)(=O)=O)c(-c3ccc4c(n3)-c3nc5c(F)cccc5n3CO4)cc12 [Compound 20, 5-(11-fluoro-6H-benzo[4,5]imidazo[1,2-c]pyrido[2,3-e][1,3]oxazin-2-yl)-2-(6-methoxypyridin-3-yl)-N-methyl-6-(N-methylmethylsulfonamido)benzofuran-3-carboxamide] | 3.7 | 2.5
2 | CNC(=O)c1c(-c2ccc(=O)n(C(F)F)c2)oc2cc(N(C)S(C)(=O)=O)c(-c3ccc4c(n3)-c3cc5c(F)cccc5n3CO4)cc12 [Compound 26, 2-(1-(difluoromethyl)-6-oxo-1,6-dihydropyridin-3-yl)-5-(11-fluoro-6H-pyrido[2′,3′:5,6][1,3]oxazino[3,4-a]indol-2-yl)-N-methyl-6-(N-methylmethylsulfonamido)benzofuran-3-carboxamide] | 118 | 108
3 | CNC(=O)c1c(C2=CCCC2)oc2cc(N(C)S(C)(=O)=O)c(-c3ccc4c(n3)-c3cc5ccccc5n3CO4)cc12 [Compound 44, 2-(cyclopent-1-en-1-yl)-N-methyl-6-(N-methylmethylsulfonamido)-5-(6H-pyrido[2′,3′:5,6][1,3]oxazino[3,4-a]indol-2-yl)benzofuran-3-carboxamide] | 6.2 | 8.3
4 | CNC(=O)c1c(-c2ccn(C)c(=O)c2)oc2cc(N(C)S(C)(=O)=O)c(-c3ccc4c(n3)-c3cc5c(F)cccc5n3CO4)cc12 [Compound 18, 5-(11-fluoro-6H-pyrido[2′,3′:5,6][1,3]oxazino[3,4-a]indol-2-yl)-N-methyl-2-(1-methyl-2-oxo-1,2-dihydropyridin-4-yl)-6-(N-methylmethylsulfonamido)benzofuran-3-carboxamide] | 57 | 29
5 | CNC(=O)c1oc2cc(N(C)S(C)(=O)=O)c(-c3ccc4c(n3)-c3cc5c(F)cccc5n3CO4)cc2c1C(=O)NC [Compound 54, 5-(11-fluoro-6H-pyrido[2′,3′:5,6][1,3]oxazino[3,4-a]indol-2-yl)-N2,N3-dimethyl-6-(N-methylmethylsulfonamido)benzofuran-2,3-dicarboxamide] | 4.3 | 7.1
6 | CNC(=O)c1c(-n2cccn2)oc2cc(N(C)S(C)(=O)=O)c(-c3ccc4c(n3)-c3cc5c(F)cccc5n3CO4)cc12 [Compound 40] | 16 | 22
7 | CNC(=O)c1c(-c2cnn(C)c2)oc2cc(N(C)S(C)(=O)=O)c(-c3ccc4c(n3)-c3cc5c(F)cccc5n3CO4)cc12 [Compound 5] | 4.4 | 7.5
8 | CNC(=O)c1c(C2=CCSCC2)oc2cc(N(C)S(C)(=O)=O)c(-c3ccc4c(n3)-c3cc5c(F)cccc5n3CO4)cc12 [Compound 32, 2-(3,6-dihydro-2H-thiopyran-4-yl)-5-(11-fluoro-6H-pyrido[2′,3′:5,6][1,3]oxazino[3,4-a]indol-2-yl)-N-methyl-6-(N-methylmethylsulfonamido)benzofuran-3-carboxamide] | 36 | 14
9 | CNC(=O)c1c(-c2ccc(C(F)F)cc2)oc2cc(N(C)S(C)(=O)=O)c(-c3ccc4c(n3)-c3cc5c(F)cccc5n3CO4)cc12 [Compound 28, 2-(4-(difluoromethyl)phenyl)-5-(11-fluoro-6H-pyrido[2′,3′:5,6][1,3]oxazino[3,4-a]indol-2-yl)-N-methyl-6-(N-methylmethylsulfonamido)benzofuran-3-carboxamide] | 9 | 6.9
10 | CNC(=O)c1c(C23CCCC2C3)oc2cc(N(C)S(C)(=O)=O)c(-c3ccc4c(n3)-c3cc5c(F)cccc5n3CO4)cc12 (stereo not shown) [Compound 48, 2-(bicyclo[3.1.0]hexan-1-yl)-5-(11-fluoro-6H-pyrido[2′,3′:5,6][1,3]oxazino[3,4-a]indol-2-yl)-N-methyl-6-(N-methylmethylsulfonamido)benzofuran-3-carboxamide] | 28 | 34
11 | CNC(=O)c1c(C(=O)N2CCC2)oc2cc(N(C)S(C)(=O)=O)c(-c3ccc4c(n3)-c3cc5c(F)cccc5n3CO4)cc12 [Compound 56] | 5 | 11
12 | CNC(=O)c1c(-c2ccc(OCC(F)(F)F)nc2)oc2cc(N(C)S(C)(=O)=O)c(-c3ccc4c(n3)-c3cc5c(F)cccc5n3CO4)cc12 [Compound 12] | 2.7 | 1.8
13 | CNC(=O)c1c(-c2ccc(OC(F)(F)F)cc2)oc2cc(N(C)S(C)(=O)=O)c(-c3ccc4c(n3)-c3cc5c(F)cccc5n3CO4)cc12 [Compound 33] | 50 | 2.5
14 | CNC(=O)c1c(-c2ccc(C#N)cc2)oc2cc(N(C)S(C)(=O)=O)c(-c3ccc4c(n3)-c3cc5c(F)cccc5n3CO4)cc12 [Compound 29, 2-(4-cyanophenyl)-5-(11-fluoro-6H-pyrido[2′,3′:5,6][1,3]oxazino[3,4-a]indol-2-yl)-N-methyl-6-(N-methylmethylsulfonamido)benzofuran-3-carboxamide] | 13 | 25
15 | CNC(=O)c1c(-n2ccc(C)cc2=O)oc2cc(N(C)S(C)(=O)=O)c(-c3ccc4c(n3)-c3cc5c(F)cccc5n3CO4)cc12 [Compound 38] | 3.5 | 2.7
16 | CNC(=O)c1c(-c2ccc(OC)nc2)oc2cc(N(C)S(C)(=O)=O)c(-c3ccc4c(n3)-c3cc5c(F)cccc5n3CO4)cc12 [Compound 11] | 7.2 | 8.4
17 | CNC(=O)c1c(-c2ccc(OC)nc2)oc2cc(N(C)S(C)(=O)=O)c(-c3ccc4c(n3)-c3cc5c(F)cccc5n3C(CO)O4)cc12 (single isomer, unassigned) [Compound 21, (S or R)-5-(11-fluoro-6-(hydroxymethyl)-6H-pyrido[2′,3′:5,6][1,3]oxazino[3,4-a]indol-2-yl)-2-(6-methoxypyridin-3-yl)-N-methyl-6-(N-methylmethylsulfonamido)benzofuran-3-carboxamide] | 2.4 | 2.8
18 | CNC(=O)c1c(-c2nnc(C)o2)oc2cc(N(C)S(C)(=O)=O)c(-c3ccc4c(n3)-c3cc5c(F)cccc5n3CO4)cc12 [Compound 58, 5-(11-fluoro-6H-pyrido[2′,3′:5,6][1,3]oxazino[3,4-a]indol-2-yl)-N-methyl-2-(5-methyl-1,3,4-oxadiazol-2-yl)-6-(N-methylmethylsulfonamido)benzofuran-3-carboxamide] | 8.1 | 7.9
19 | CNC(=O)c1c(-c2ccc(F)nc2)oc2cc(N(C)S(C)(=O)=O)c(-c3ccc4c(n3)-c3cc5c(F)cccc5n3CO4)cc12 [Compound 4] | 3 | 6.1
20 | CNC(=O)c1c(-c2ccc(OCC(F)(F)F)nc2)oc2cc(N(C)S(C)(=O)=O)c(-c3ccc4c(n3)-c3cc5c(F)cccc5n3C(CO)O4)cc12 (stereo not shown) [Compound 24] | 1.7 | 1.4
21 | CNC(=O)c1c(N2CCOCC2)oc2cc(N(C)S(C)(=O)=O)c(-c3ccc4c(n3)-c3cc5c(F)cccc5n3CO4)cc12 [Compound 42, 5-(11-fluoro-6H-pyrido[2′,3′:5,6][1,3]oxazino[3,4-a]indol-2-yl)-N-methyl-6-(N-methylmethylsulfonamido)-2-morpholinobenzofuran-3-carboxamide] | 85 | 35
22 | CNC(=O)c1c(-c2ccc(OC(F)F)nc2)oc2cc(N(C)S(C)(=O)=O)c(-c3ccc4c(n3)-c3cc5c(F)cccc5n3CO4)cc12 [Compound 25, 2-(6-(difluoromethoxy)pyridin-3-yl)-5-(11-fluoro-6H-pyrido[2′,3′:5,6][1,3]oxazino[3,4-a]indol-2-yl)-N-methyl-6-(N-methylmethylsulfonamido)benzofuran-3-carboxamide] | 3 | 5
23 | CNC(=O)c1c(C2=CCCC2)oc2cc(N(C)S(C)(=O)=O)c(-c3ccc4c(n3)-c3cc5c(F)cccc5n3CO4)cc12 [Compound 45] | 6.1 | 6.4
24 | CNC(=O)c1c(C2CC2)oc2cc(N(C)S(C)(=O)=O)c(-c3ccc4c(n3)-c3cc5c(F)cccc5n3C(CO)O4)cc12 (single isomer, unassigned) [Compound 51, (R or S)-2-cyclopropyl-5-(11-fluoro-6-(hydroxymethyl)-6H-pyrido[2′,3′:5,6][1,3]oxazino[3,4-a]indol-2-yl)-N-methyl-6-(N-methylmethylsulfonamido)benzofuran-3-carboxamide] | 8.3 | 15
25 | CCn1cc(-c2oc3cc(N(C)S(C)(=O)=O)c(-c4ccc5c(n4)-c4cc6c(F)cccc6n4CO5)cc3c2C(=O)NC)cn1 [Compound 14] | 9.1 | 18
26 | CNC(=O)c1c(-c2ccc(Oc3ccc(F)cc3)nc2)oc2cc(N(C)S(C)(=O)=O)c(-c3ccc4c(n3)-c3cc5c(F)cccc5n3CO4)cc12 [Compound 27, 5-(11-fluoro-6H-pyrido[2′,3′:5,6][1,3]oxazino[3,4-a]indol-2-yl)-2-(6-(4-fluorophenoxy)pyridin-3-yl)-N-methyl-6-(N-methylmethylsulfonamido)benzofuran-3-carboxamide] | 23 | 34
